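Five concentrations, 48 hours, 96-well plates. The concentration for full growth arrest is given as TGI.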
Assays:
Assay in all cases: inhibition of tumour cell growth, NCI panel, 48 h
MOLT-4 leukemia = tested on: MOLT-4 leukemia
HT29 colon = tested on: HT29 colon
NCI-H23 lung = tested on: NCI-H23 lung
HCT-116 colon = tested on: HCT-116 colon
RXF 393 renal = tested on: RXF 393 renal
RXF-631 renal = tested on: RXF-631 renal
M14 melanoma = tested on: M14 melanoma
NCI-H522 lung = tested on: NCI-H522 lung
U251 CNS = tested on: U251 CNS
KM12 colon = tested on: KM12 colon
OVCAR-8 ovarian = tested on: OVCAR-8 ovarian
SK-MEL-28 melanoma = tested on: SK-MEL-28 melanoma
SK-MEL-2 melanoma = tested on: SK-MEL-2 melanoma
COLO 205 colon = tested on: COLO 205 colon
NCI-H460 lung = tested on: NCI-H460 lung
SF-268 CNS = tested on: SF-268 CNS
A549 NSCLC = tested on: A549 NSCLC
LXFL 529 NSCLC = tested on: LXFL 529 NSCLC
NCI-H226 lung = tested on: NCI-H226 lung
DMS 273 small cell lung = tested on: DMS 273 small cell lung
A498 renal = tested on: A498 renal
HOP-62 NSCLC = tested on: HOP-62 NSCLC
SK-OV-3 ovarian = tested on: SK-OV-3 ovarian
RPMI-8226 leukemia = tested on: RPMI-8226 leukemia
HCT-15 colon = tested on: HCT-15 colon
SN12C renal = tested on: SN12C renal
SNB-78 CNS = tested on: SNB-78 CNS
OVCAR-5 ovarian = tested on: OVCAR-5 ovarian
UACC-257 melanoma = tested on: UACC-257 melanoma
IGROV1 ovarian = tested on: IGROV1 ovarian
SR leukemia = tested on: SR leukemia
OVCAR-4 ovarian = tested on: OVCAR-4 ovarian
LOX IMVI melanoma = tested on: LOX IMVI melanoma
TK-10 renal = tested on: TK-10 renal
SW-620 colon = tested on: SW-620 colon
UACC-62 melanoma = tested on: UACC-62 melanoma
XF 498 CNS = tested on: XF 498 CNS
HCC-2998 colon = tested on: HCC-2998 colon
SK-MEL-5 melanoma = tested on: SK-MEL-5 melanoma
OVCAR-3 ovarian = tested on: OVCAR-3 ovarian
ACHN renal = tested on: ACHN renal
HL-60(TB) leukemia = tested on: HL-60(TB) leukemia
K-562 leukemia = tested on: K-562 leukemia
KM20L2 colon = tested on: KM20L2 colon
SF-539 CNS = tested on: SF-539 CNS
SNB-19 CNS = tested on: SNB-19 CNS
UO-31 renal = tested on: UO-31 renal
MALME-3M melanoma = tested on: MALME-3M melanoma
DLD-1 colon = tested on: DLD-1 colon
CAKI-1 renal = tested on: CAKI-1 renal
M19-MEL melanoma = tested on: M19-MEL melanoma
EKVX NSCLC = tested on: EKVX NSCLC
786-0 renal = tested on: 786-0 renal
SNB-75 CNS = tested on: SNB-75 CNS
HOP-92 NSCLC = tested on: HOP-92 NSCLC
CCRF-CEM leukemia = tested on: CCRF-CEM leukemia
SF-295 CNS = tested on: SF-295 CNS
DMS 114 small cell lung = tested on: DMS 114 small cell lung

Measured: TGI

COC(=O)c1[nH]c(=S)[nH]c(=O)c1-c1ccc(Cl)cc1
> 50 µM: all assays above

From PubChem BioAssay (NCI)
